Test results taken from article PMC9775191, “A Subset Screen of the Compounds Australia Scaffold Library Identifies 7-Acylaminodibenzoxazepinones as Potent and Selective Hits for Anti-Giardia Drug Discovery” (Biomedicines, 2022).

tested on: G. duodenalis BRIS/91/HEPU/1279; assay: Primary Giardia screen at 10 µM (live-cell imaging, automated counting); assay type: cell-based, Giardia duodenalis; conditions: 24 h
In short: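 Compound added to 10 μM final in medium with 0.2% DMSO, one well each; plates then held in sealed chambers at 3% O2, 5% CO2 in N2; growth imaged and counted automatically at 24 and 48 h; values normalised to vehicle wells minus media blank.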

Structure (SMILES) | Average % Inhibition 24h
O=C(c1cc2occc2c(Nc2ccc(F)cc2)n1)N1CCN(c2ccccn2)CC1 [SN00790827] | 14.2%
COc1ccc(C2=Nc3ccccc3N(CC(=O)Nc3cccc(F)c3)C(=O)C2)cc1 [SN00791795] | 12.6%
COc1ccc(C2=Nc3ccccc3N(Cc3cccc(F)c3)C(=O)C2)cc1 [SN00791806] | 8.7%

same assay, conditions: 24 h, first singlicate assay

Structure (SMILES) | % Inhibition n=1 24h
O=C(c1cc2occc2c(Nc2ccc(F)cc2)n1)N1CCN(c2ccccn2)CC1 [SN00790827] | 21.9%
COc1ccc(C2=Nc3ccccc3N(CC(=O)Nc3cccc(F)c3)C(=O)C2)cc1 [SN00791795] | 25.2%
COc1ccc(C2=Nc3ccccc3N(Cc3cccc(F)c3)C(=O)C2)cc1 [SN00791806] | 17.4%

same assay, conditions: 24 h, re-assessment

Structure (SMILES) | % Inhibition n=2 24h
O=C(c1cc2occc2c(Nc2ccc(F)cc2)n1)N1CCN(c2ccccn2)CC1 [SN00790827] | 6.5%
COc1ccc(C2=Nc3ccccc3N(CC(=O)Nc3cccc(F)c3)C(=O)C2)cc1 [SN00791795] | 0.0%
COc1ccc(C2=Nc3ccccc3N(Cc3cccc(F)c3)C(=O)C2)cc1 [SN00791806] | 0.0%

same assay, conditions: 48 h

Structure (SMILES) | Average % Inhibition 48h
O=C(c1cc2occc2c(Nc2ccc(F)cc2)n1)N1CCN(c2ccccn2)CC1 [SN00790827] | 31.0%
COc1ccc(C2=Nc3ccccc3N(CC(=O)Nc3cccc(F)c3)C(=O)C2)cc1 [SN00791795] | 40.3%
COc1ccc(C2=Nc3ccccc3N(Cc3cccc(F)c3)C(=O)C2)cc1 [SN00791806] | 30.2%

same assay, conditions: 48 h, first singlicate assay

Structure (SMILES) | % Inhibition n=1 48h
COc1ccccc1CN1CCN(c2cc(C(=O)O)c3cc(NC(C)=O)ccc3n2)CC1 [SN00790290] | 39.8%
Cc1ccc(CN2CCN(C(=O)C3CCC3)c3cccnc32)cc1 [SN00790417] | 4.2%
COc1ccc(OCC(=O)N2CCN(Cc3ccc(C)cc3)c3ncccc32)cc1 [SN00790421] | 6.7%
COc1ccc(S(=O)(=O)N2CCN(Cc3ccc(C)cc3)c3ncccc32)cc1 [SN00790428] | 10.3%
O=S(=O)(c1ccc(F)cc1)N1CCN=C1N1CCCCC1 [SN00790442] | 15.7%
O=C(Nc1cccc(F)c1)c1nnc(C2CCCN2C(=O)Nc2cccc(C(F)(F)F)c2)s1 (stereo not drawn) [SN00790473] | 8.5%
Cc1ccc(NC(=O)c2nnc(C3CCCN3C(=O)NC3CCCC3)s2)cc1 (stereo not drawn) [SN00790483] | 4.4%
CCOc1ccc(-n2c(=O)c3sc4ncccc4c3n(CC(=O)NC3CCCCC3)c2=O)cc1 [SN00790499] | 13.5%
CCOc1ccc(-n2c(=O)c3sc4ncccc4c3n(CC(=O)N3CCCCC3)c2=O)cc1 [SN00790501] | 5.1%
CSc1ccc(CNC(=O)C2CCN(S(=O)(=O)c3ccc(-c4ccn[nH]4)o3)CC2)cc1 [SN00790551] | 11.7%
O=c1c2cc(-c3cccs3)nn2ccn1Cc1nc(-c2cccc(F)c2)no1 [SN00790579] | 8.1%
Cc1ccc(Cn2nnc3c(=O)n(Cc4nc(-c5ccccc5)no4)cnc32)cc1 [SN00790594] | 2.1%
COc1ccccc1-c1noc(Cn2cnc3c(nnn3Cc3ccccc3)c2=O)n1 [SN00790613] | 6.5%
Cc1ccccc1CS(=O)(=O)Cc1ccc(-c2nc(-c3ccc(Br)cc3)no2)o1 [SN00790667] | 0.0%
O=C(CC1COc2ccccc2N1Cc1ccccc1)N1CCc2ccccc2C1 (stereo not drawn) [SN00790679] | 0.0%
CN1c2ccccc2OCC1CC(=O)Nc1ccc(F)cc1 (stereo not drawn) [SN00790682] | 7.6%
CCCc1nnc(C(=O)Nc2cccc(C(=O)NCc3c[nH]nc3C)c2)s1 [SN00790723] | 0.0%
CCOc1ccc(CNC(=O)c2cccc(NC(=O)c3nnc(C4CC4)s3)c2)cc1 [SN00790732] | 0.0%
Cc1nn(C(C)C)c(C)c1S(=O)(=O)N1CCN(C(=O)c2cccs2)CC1 [SN00790783] | 3.8%
Cc1cccc(N(C)S(=O)(=O)c2cc(-c3ccno3)sc2C)c1 [SN00790813] | 6.1%
CCN1CCN(CCCNC(=O)c2cc3occc3c(Nc3ccc(OC)cc3)n2)CC1 [SN00790822] | 14.5%
O=C(c1cc2occc2c(Nc2ccc(F)cc2)n1)N1CCN(c2ccccn2)CC1 [SN00790827] | 53.8%
Cc1ccc(CNC(=O)C2CCN(c3ncccc3-n3cccc3)CC2)cc1 [SN00790865] | 0.0%
CCC(C)NC(=O)N1CCc2c(sc3nc(-c4ccc(C)cc4)nn23)C1 (stereo not drawn) [SN00790900] | 10.9%
CCNC(=O)N1CCCC(c2cccc(C(=O)NCCC3=CCCCC3)c2)C1 (stereo not drawn) [SN00790923] | 6.9%

Structure (SMILES) | % Inhibition n=1 48h
CCOC(=O)c1cccc(NC(=O)c2cnc(C)nc2C)c1 [SN00790942] | 0.0%
Cc1ccc(-c2ncc(C(=O)NC3CCCCCC3)c(C)n2)cc1 [SN00790958] | 0.0%
CCc1nc(-c2ccc3c(c2)CCN3C(=O)CCc2ccc(OC)cc2)no1 [SN00790989] | 14.1%
COc1ccccc1-c1cc(C(=O)N2CCCN(c3ccc(=O)n(-c4ccc(C)c(C)c4)n3)CC2)[nH]n1 [SN00791007] | 8.7%
Cc1c(-c2nc(-c3cccnc3)no2)oc2ccc(S(=O)(=O)N3CCOCC3)cc12 [SN00791042] | 1.1%
CC(C)n1c(=O)c2cn(S(=O)(=O)c3ccccc3)nc2n(C(C)C)c1=O [SN00791107] | 5.9%
CCS(=O)(=O)N1CCC2(CC1)OC(=O)C(C)=C2C(=O)Nc1ccc(C)cc1C [SN00791146] | 0.0%
CCCN1CCN(C(=O)C2=C(C)C(=O)OC23CCN(S(=O)(=O)CC)CC3)CC1 [SN00791149] | 0.0%
O=C(Cn1c2ncccc2c(=O)n1-c1ccccc1)NC1CCCC1 [SN00791196] | 18.2%
CCC1c2cccn2-c2ccccc2CN1C(=O)NCCc1ccccc1 (stereo not drawn) [SN00791262] | 18.8%
CCOCCCNC(=O)N1Cc2ccccc2-n2cccc2C1c1ccccc1 (stereo not drawn) [SN00791279] | 0.0%
COc1cc(-c2noc(-c3cc(-c4ccco4)n[nH]3)n2)cc(OC)c1OC [SN00791289] | 2.3%
COc1ccc(-c2noc(-c3cc(-c4cccs4)n[nH]3)n2)cc1 [SN00791300] | 15.5%
COc1ccc(Cl)cc1-n1nnc(-c2nsc(NC(=O)c3ccccc3)n2)c1C [SN00791316] | 20.0%
COCCN1C(=O)c2oc3ccccc3c2OCC1(C)C(=O)NCc1ccccc1OC (stereo not drawn) [SN00791365] | 21.5%
COCCCN1C(=O)CSc2c(c(C)nn2-c2ccccc2)C1C(=O)NCc1ccccc1OC (stereo not drawn) [SN00791374] | 0.0%
Cc1nn(-c2ccccc2)c2c1C(C(=O)NC1CCCC1)N(c1ccc(F)cc1F)C(=O)CS2 (stereo not drawn) [SN00791377] | 1.8%
Cc1[nH]c(C)c(S(=O)(=O)N2CCCc3ccccc32)c1C(=O)N1CCCCC1 [SN00791426] | 0.0%
Cc1c(C(=O)N2CCCCC2)c(S(=O)(=O)N2CCN(c3ccccn3)CC2)c(C)n1C [SN00791445] | 0.0%
COc1ccc(OC)c(CNC(=O)c2ccc(N3CCOc4ccccc43)s2)c1 [SN00791505] | 9.9%
CCCNC(=O)N1Cc2c(sc3c2CCCC3)-n2cccc2C1CC (stereo not drawn) [SN00791532] | 15.0%
COc1ccccc1NC(=O)N1Cc2c(sc3c2CCN(C)C3)-n2cccc2C1C (stereo not drawn) [SN00791542] | 24.5%
CCOC(=O)c1ccccc1NC(=O)N1Cc2c(sc3c2CCN(C)C3)-n2cccc2C1CC (stereo not drawn) [SN00791557] | 10.1%
CCCN1C(=O)c2c(C(=O)NCCc3ccccc3)ncn2CC1(C)C(=O)NCCC(C)C (stereo not drawn) [SN00791583] | 9.0%
CCOc1ccc(CCNC(=O)c2c(C)oc3c2C2=NCCN2C=N3)cc1OCC [SN00791607] | 17.8%

Structure (SMILES) | % Inhibition n=1 48h
COc1ccc(CN2CCN(C(=O)c3c(C)oc4c3C3=NCCN3C=N4)CC2)c(OC)c1OC [SN00791620] | 7.4%
O=C(c1noc2ncnc(N3CCCC3)c12)N1CCN(c2ccccn2)CC1 [SN00791654] | 7.3%
CCN(c1ccc(OC)cc1)S(=O)(=O)c1csc(C(=O)N(C)C)c1 [SN00791689] | 2.7%
CCc1ccc(CNC(=O)c2c[nH]nc2-c2ccc(Cl)cc2)cc1 [SN00791699] | 7.3%
O=C(c1c[nH]nc1-c1ccc(Cl)cc1)N1CCN(c2ccccc2)CC1 [SN00791700] | 26.6%
O=C(c1cc(CN2CCCC2)on1)N1CCN(C(=O)c2ccco2)CC1 [SN00791727] | 0.0%
Cc1cc2n(n1)CCCN2CC(=O)N1CCN(c2ccc(Cl)cc2)CC1 [SN00791741] | 2.4%
Cc1cc2n(n1)CCCN2CC(=O)N1CCN(c2cccc(Cl)c2)CC1 [SN00791744] | 5.3%
COc1ccc(CNc2nc(-c3cccc(OC)c3)no2)cc1 [SN00791772] | 0.0%
COc1cccc(-c2noc(Nc3cccc(C)c3)n2)c1 [SN00791775] | 0.0%
COc1ccc(C2=Nc3ccccc3N(CC(=O)Nc3cccc(F)c3)C(=O)C2)cc1 [SN00791795] | 54.2%
COc1ccc(C2=Nc3ccccc3N(Cc3cccc(F)c3)C(=O)C2)cc1 [SN00791806] | 50.8%
O=C(NCCCN1CCCC1)c1ccc2c(c1)N(CC(=O)N1CCCC1)C(=O)CO2 [SN00791845] | 0.0%
C=CCNC(=O)CCN1CCN(Cc2ccccc2)C1=O [SN00791850] | 0.0%
Cc1sc2c(c1C)C(c1ccc(F)cc1)=NCC(=O)N2CC(=O)Nc1ccc(Cl)cc1 [SN00791866] | 0.0%
CCN(CC)C(=O)CN1C(=O)CN=C(c2ccc(OC)cc2)c2c1sc1c2CCCC1 [SN00791881] | 0.0%
CC(=O)N1c2ccc(S(=O)(=O)N3CCCCC3)cc2CC1C(=O)N1CCCCC1 (stereo not drawn) [SN00791893] | 0.0%
COc1ccc(-c2cnc(C)o2)cc1S(=O)(=O)Nc1ccc(C)cc1 [SN00792030] | 22.0%
O=S(=O)(c1ccc(-c2cnc(C3CC3)o2)cc1)N1CCCCC1 [SN00792043] | 8.3%
CCCNc1nc(N2CCN(CC)CC2)c2cnn(C)c2n1 [SN00792083] | 10.1%
CCOC(=O)c1ccccc1NC(=O)NC(c1ccccc1)c1nnc(-c2ccccc2)o1 (stereo not drawn) [SN00792113] | 0.0%
O=C(CS(=O)(=O)c1ccc2c(c1)S(=O)(=O)N=CN2)Nc1ccccc1 [SN00792172] | 15.6%
CC(C)(C)c1ccc(C(=O)N2CCC3(CC2)N=C(c2cccc(Cl)c2)C(=O)N3)cc1 [SN00792200] | 32.1%
COc1ccc(CN2CCC3(CC2)N=C(c2ccc(C)cc2)C(=O)N3)cc1 [SN00792212] | 16.2%
Cc1ccc(S(=O)(=O)Nc2ccc3c(c2)N(C(=O)c2ccco2)CCC3)cc1C [SN00792238] | 12.2%

same assay, conditions: 48 h, re-assessment

Structure (SMILES) | % Inhibition n=2 48h
O=C(c1cc2occc2c(Nc2ccc(F)cc2)n1)N1CCN(c2ccccn2)CC1 [SN00790827] | 8.1%
COc1ccc(C2=Nc3ccccc3N(CC(=O)Nc3cccc(F)c3)C(=O)C2)cc1 [SN00791795] | 26.4%
COc1ccc(C2=Nc3ccccc3N(Cc3cccc(F)c3)C(=O)C2)cc1 [SN00791806] | 9.6%
